Data: PMC6624297 (Cell Death & Disease, 2019)

Assays:
H460 cells = assay: MTT assay H460; format: cell-based, human
Procedure: (§1) Details are given in Supplementary Materials and Methods. Using probability unit and weighted regression method to calculate the IC50 value of compounds.
Total cells in the logarithmic growth phase were collected, digested using 0.25% pancreatic enzymes, and then diluted into single-cell suspensions using phosphate-buffered solution (PBS). These cells were seeded into 96-well plates at 4× 10^3-5× 10^3 cells per well (100 µL per well) and then A549, H460, OVCAR-3, SGC7901, MDA-MB-231, HCT116 and HepG2 were cultured at 37°Cin an incubator containing 5% CO2. After cell complete attachment, 100 µL of different concentrations of compounds (0.625 μM, 1.25 μM, 2.5μM, 5 μM, 10 μM) were added to the cells after the nutrient solution in each well was discarded, while no compound except 0.1% DMSO was added to cells in the control group; at the same time, each concentration was set up to 5 wells. In addition, 5 wells in each 96-well plate only received 100 µL of nutrient solution as a blank control. The plates were taken out after the cells were incubated with compounds for 24 h, and 20 µL of MTT solution (5 mg/mL) (Wuhan Boster Biotechnology Limited Company, Wuhan, China; item No. AR1156) was added into all the wells. […] When the crystals were fully dissolved, the blank wells were used to zero the plate reader. The optical density (OD) of each well was detected at 490 nm. […]

VEGF = VEGF secretion ELISA in A549 supernatant; format: cell-based, human; settings: ELISA of cell supernatant
Procedure: Since the inhibitory effect of the compound on A549 cells was stronger than that of H460, the A549 cells were treated with different concentrations of L14e. Taking the supernatant of the cells to detect the change of VEGF content by ELISA assays, and the effect of the supernatant on the formation of endothelial cells was detected.

HCT-116 cells = assay: MTT assay HCT-116; format: cell-based; settings: Homo sapiens, 24h of treatment, mean ± SD
Procedure: as §1
Total cells in the logarithmic growth phase were collected, digested using 0.25% pancreatic enzymes, and then diluted into single-cell suspensions using phosphate-buffered solution (PBS). These cells were seeded into 96-well plates at 4× 10^3-5× 10^3 cells per well (100 µL per well) and then A549, H460, OVCAR-3, SGC7901, MDA-MB-231, HCT116 and HepG2 were cultured at 37°Cin an incubator containing 5% CO2. After cell complete attachment, 100 µL of different concentrations of compounds (0.625 μM, 1.25 μM, 2.5μM, 5 μM, 10 μM) were added to the cells after the nutrient solution in each well was discarded, while no compound except 0.1% DMSO was added to cells in the control group; at the same time, each concentration was set up to 5 wells. In addition, 5 wells in each 96-well plate only received 100 µL of nutrient solution as a blank control. The plates were taken out after the cells were incubated with compounds for 24 h, and 20 µL of MTT solution (5 mg/mL) (Wuhan Boster Biotechnology Limited Company, Wuhan, China; item No. AR1156) was added into all the wells. After another time of incubation for 4 h at 37 °C, the nutrient solution in each well was discarded slowly, and 150 µL of DMSO was added to each well. The plates were shaken on a shaking table for 20 min. When the crystals were fully dissolved, the blank wells were used to zero the plate reader. The optical density (OD) of each well was detected at 490 nm. The IC50 value was determined as the concentration of the inhibitor that caused 50% inhibition. Using probability unit and weighted regression method to calculate the IC50 value of compounds.

For `O=C(Nc1cccc(Cl)c1)Nc1ccccc1NS(=O)(=O)c1c[nH]c(=O)[nH]c1=O` [Compound L14e, N'-(3-chlorophenyl)-2-(2,4-dihydroxypyrimidine-5-sulfonamido)phenyl urea], the “anti-proliferative potency relative to PTX, H460” value (H460 cells) was “nearly five times higher”, the “inhibition of proliferation of H460 cells compared with PTX and compound 10l” value (H460 cells; Fig. 2B(b)) was “significantly more inhibitory” and the “secretion of VEGF in A549 cells” value (VEGF) was “significantly reduce the secretion of VEGF”. The IC50 (HCT-116 cells) was 1.98 ± 0.18 µM.
